Source: publication PMC5225203, “Multiparameter toxicity assessment of novel DOPO-derived organophosphorus flame retardants” (Archives of Toxicology, 2016)

Tests used:
[1] = system: differentiating LUHMES cells; assay type: cell-based, human; conditions: day 0 to day 2
Method: LUHMES cells are conditionally immortalized human fetal ventral mesencephalic neuronal precursor cells that were obtained by clonal selection. Differentiated LUHMES cells show a clear dopaminergic phenotype, which was described in detail previously (Schildknecht et al. [2009]; Scholz et al. [2011]). Cells were propagated in advanced DMEM/F12 (Gibco/Invitrogen, Darmstadt, Germany) with 1 × N2 supplement (Invitrogen), 2 mM L-glutamine (Gibco), and 40 ng/mL recombinant bFGF (R&D Systems, Minneapolis, MN, USA). […] For quantitative evaluation of the neurite area, β-III-tubulin-stained cells were analyzed using an automated microplate-reading microscope (Array-Scan II® HCS Reader, Cellomics, Pittsburgh, PA, USA) equipped with a Hamamatsu ORCA-ER camera (1024 × 1024 resolution; run at 2 × 2 binning). […]
For quantitative assessment of total neurite mass, cells were analysed by an automated microscope system with imaging algorithms allowing a separation between cell bodies and […]
Suppl. […] Differentiating human dopaminergic neurons (LUHMES) were treate d with the different flame retardants in the concentrations as indicated for 48 h from day 0 to day 2 of differentiation. a Cell viability was determined by the resazurin redu ction and by the lactate dehydrogenase release assays. b Intracellular levels of ATP and of reduced glutathione (GSH) were measured in parallel.

A549 cells = system: A549 cells; parameters: method as in Kim et al. [2014]; conditions: same concentration range as used in the present study; ref Kim et al. [2014]; cited from earlier work
human neural crest cells = system: human neural crest cells; parameters: method as in Zimmer et al. [2014]; conditions: concentrations as high as 100 µM; ref Zimmer et al. [2014]; cited from earlier work
[2] = system: rat adrenomedullary pheochromocytoma PC12 cells; conditions: PC12, 24 h, maximal concentration 100 µM; ref Hendriks et al. [2014]; cited from earlier work
Daphnia magna = conditions: water-soluble fraction of a 1000 mg/L suspension (approximately 2 mM), 48 h; ref Waaijers et al. [2013a], [b]; cited from earlier work

## O=P1(NCCNP2(=O)Oc3ccccc3-c3ccccc32)Oc2ccccc2-c2ccccc21 (stereo not drawn) [EDA-DOPO, 6,6′-(ethane-1,2-diylbis(azanediyl))bis(6H-dibenzo[c,e][1,2]oxaphosphinine-6-oxide)]
[1]
  influence on total neurite area: moderate, but significant influence
  intracellular levels of ATP and GSH: this effect was not reflected

## Brc1ccc(Oc2cc(Br)c(Br)cc2Br)c(Br)c1 [PBDE-99, reference compound]
A549 cells
  cell damage in A549 cells: did not produce cell damage
Human neural crest cells
  NCC migration and cell death: inhibited migration in the absence of cell death

## O=[PH]1Oc2ccccc2-c2ccccc21 (stereo not drawn) [DOPO, 9,10-dihydro-9-oxa-10-phosphaphenanthrene-10-oxide]
[2]
  alterations in cell viability, generation of reactive oxygen species, or intracellular Ca2+ levels: no signs of alterations
Daphnia magna
  influence on daphnid viability: did not significantly influence viability
